Results reported in patent US20240270762A1, “PENICILLIN-BINDING PROTEIN INHIBITORS” (priority 2021, published 2024).
Converted amounts (≈) assume the structure as drawn.

Experiments:
E. coli AG100A = assay: Broth microdilution MIC in CAMHB; assay type: cell-based; details: Escherichia coli, read-out: MIC E. coli AG100A
N. gonorrhoeae WHO X = assay: Liquid broth MIC in Fastidious broth; details: Neisseria gonorrhoeae, read-out: Minimum Inhibitory Concentration (MIC), N. gonorrhoeae WHO X
[1] = molecular target: T1, PBP3 from Escherichia coli (K-12) (Escherichia coli, UniProt P0AD68); assay: Bocillin-FL fluorescence polarization competition binding, E. coli PBP3
T1 construct: made in house
Summary of the method: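 Purified PBPs pre-incubated with inhibitor (E. coli PBP3 1.5 μM, 30 min; P. aeruginosa PBP3 0.75 μM, A. baumannii PBP1a 1 μM and PBP3 0.2 μM, 15 min), then Bocillin-FL 0.1 μM (0.05 μM for PBP1a) added; FP read up to 60 min. EC50 = concentration halving bound Bocillin-FL.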

N. gonorrhoeae WHO L = assay: Liquid broth MIC in Fastidious broth; details: Neisseria gonorrhoeae, read-out: Minimum Inhibitory Concentration (MIC), N. gonorrhoeae WHO L
N. gonorrhoeae MS11 = assay: Liquid broth MIC in Fastidious broth; details: Neisseria gonorrhoeae, MS11, read-out: Minimum Inhibitory Concentration (MIC), N. gonorrhoeae MS11
P. aeruginosa ATCC 35151 = assay: microbe, parasite or virus in culture; assay type: cell-based; details: Pseudomonas aeruginosa, ATCC35151, read-out: MIC P. aeruginosa ATCC 35151
E. coli 901C = assay: microbe, parasite or virus in culture; assay type: cell-based; details: Escherichia coli, read-out: MIC E. coli 901C
K. pneumoniae UMM = assay: microbe, parasite or virus in culture; assay type: cell-based; details: Klebsiella pneumoniae, read-out: MIC K. pneumoniae UMM
E. coli AG100 = assay: microbe, parasite or virus in culture; assay type: cell-based; details: Escherichia coli, AG100, read-out: MIC E. coli AG100
N. gonorrhoeae WHO G = assay: Liquid broth MIC in Fastidious broth; details: Neisseria gonorrhoeae, read-out: Minimum Inhibitory Concentration (MIC), N. gonorrhoeae WHO G
E. coli D22 = assay: microbe, parasite or virus in culture; assay type: cell-based; details: Escherichia coli, D22, read-out: MIC E. coli D22
K. pneumoniae 848844 = assay: microbe, parasite or virus in culture; assay type: cell-based; details: Klebsiella pneumoniae, 848844, read-out: MIC K. pneumoniae 848844
N. gonorrhoeae WHO M = assay: Liquid broth MIC in Fastidious broth; details: Neisseria gonorrhoeae, read-out: Minimum Inhibitory Concentration (MIC), N. gonorrhoeae WHO M
[2] = system: N. gonorrhoeae ATCC 49226; assay: Liquid broth MIC in Fastidious broth; details: Neisseria gonorrhoeae, ATCC49226, read-out: Minimum Inhibitory Concentration (MIC), N. gonorrhoeae ATCC 49226

T1 sequence (P0AD68 1-577): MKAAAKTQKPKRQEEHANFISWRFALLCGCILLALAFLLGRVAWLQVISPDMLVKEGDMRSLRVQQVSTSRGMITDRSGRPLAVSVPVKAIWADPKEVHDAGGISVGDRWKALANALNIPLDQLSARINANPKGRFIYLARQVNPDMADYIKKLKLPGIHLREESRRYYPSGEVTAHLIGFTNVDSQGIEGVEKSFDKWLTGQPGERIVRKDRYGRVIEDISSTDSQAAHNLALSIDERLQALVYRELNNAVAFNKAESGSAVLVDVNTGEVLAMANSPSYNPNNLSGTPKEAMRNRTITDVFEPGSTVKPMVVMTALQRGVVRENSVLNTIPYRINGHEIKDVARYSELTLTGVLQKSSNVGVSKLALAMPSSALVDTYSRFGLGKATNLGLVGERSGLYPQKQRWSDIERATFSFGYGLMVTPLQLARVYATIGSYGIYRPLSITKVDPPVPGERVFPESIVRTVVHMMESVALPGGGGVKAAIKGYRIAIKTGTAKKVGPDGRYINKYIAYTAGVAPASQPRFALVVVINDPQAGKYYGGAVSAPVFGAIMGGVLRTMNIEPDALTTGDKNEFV

Structure (SMILES) | MIC (E. coli AG100A) [µg/mL] | MIC (N. gonorrhoeae WHO X) [µg/mL] | EC50 [1] [µM] | MIC (N. gonorrhoeae WHO L) [µg/mL] | MIC (N. gonorrhoeae MS11) [µg/mL] | MIC (P. aeruginosa ATCC 35151) [µg/mL] | MIC (E. coli 901C) [µg/mL] | MIC (K. pneumoniae UMM) [µg/mL] | MIC (E. coli AG100) [µg/mL] | MIC (N. gonorrhoeae WHO G) [µg/mL] | MIC (E. coli D22) [µg/mL] | MIC (K. pneumoniae 848844) [µg/mL] | MIC (N. gonorrhoeae WHO M) [µg/mL] | MIC [2] [µg/mL]
O=C(O)c1cccc2c1OB(O)[C@@H](NC(=O)[C@@H](NC(=O)c1cnc3sccn3c1=O)c1ccc(P(=O)(O)O)cc1)C2 (single isomer, unassigned) [Example 194] | > 128 | 16 to 32 (≈ 26.7 to 53.5 µM) | 10 to 50 | 16 to 32 (≈ 26.7 to 53.5 µM) | 4 to 8 (≈ 6.69 to 13.4 µM) | 2 to 4 (≈ 3.34 to 6.69 µM) | 2 to 4 (≈ 3.34 to 6.69 µM) | > 128 | > 128 | 4 to 8 (≈ 6.69 to 13.4 µM) | 32 to 64 (≈ 53.5 to 107 µM) | > 128 | 4 to 8 (≈ 6.69 to 13.4 µM) | 4 to 8 (≈ 6.69 to 13.4 µM)
CN1CCC[C@@H]1C(=O)N[C@@H](C(=O)N[C@H]1Cc2cccc(C(=O)O)c2OB1O)c1ccc(P(=O)(O)O)cc1 (racemic) [Example 54, (R)-2-hydroxy-3-((S)-2-((R)-1-methylpyrrolidine-2-carboxamido)-2-(4-phosphonophenyl)acetamido)-3,4-dihydro-2H-benzo[e][1,2]oxaborinine-8-carboxylic acid and (R)-2-hydroxy-3-((R)-2-((R)-1-methylpyrrolidine-2-carboxamido)-2-(4-phosphonophenyl)acetamido)-3,4-dihydro-2H-benzo[e][1,2]oxaborinine-8-carboxylic acid] | > 128 | 16 to 32 (≈ 30.1 to 60.2 µM) | 50 to 250 | 16 to 32 (≈ 30.1 to 60.2 µM) | 16 to 32 (≈ 30.1 to 60.2 µM) | 32 to 64 (≈ 60.2 to 120 µM) | 32 to 64 (≈ 60.2 to 120 µM) | > 128 | > 128 | 16 to 32 (≈ 30.1 to 60.2 µM) | > 128 | > 128 | 4 to 8 (≈ 7.53 to 15.1 µM) | 16 to 32 (≈ 30.1 to 60.2 µM)
O=C(O)c1cccc2c1OB(O)[C@@H](NC(=O)C(NC(=O)[C@H]1CCCN1)c1ccc(P(=O)(O)O)cc1)C2 (stereo partly drawn) [Example 52, (3R)-2-hydroxy-3-(2-(4-phosphonophenyl)-2-((R)-pyrrolidine-2-carboxamido)acetamido)-3,4-dihydro-2H-benzo[e][1,2]oxaborinine-8-carboxylic acid] | 32 to 64 (≈ 61.9 to 124 µM) | 16 to 32 (≈ 30.9 to 61.9 µM) | > 250 | 4 to 8 (≈ 7.73 to 15.5 µM) | 16 to 32 (≈ 30.9 to 61.9 µM) | 8 to 16 (≈ 15.5 to 30.9 µM) | 32 to 64 (≈ 61.9 to 124 µM) | 32 to 64 (≈ 61.9 to 124 µM) | > 128 | 16 to 32 (≈ 30.9 to 61.9 µM) | 32 to 64 (≈ 61.9 to 124 µM) | > 128 | 16 to 32 (≈ 30.9 to 61.9 µM) | 16 to 32 (≈ 30.9 to 61.9 µM)
O=C(O)c1cccc2c1OB(O)[C@@H](NC(=O)C(NC(=O)c1ccc[nH]c1=O)c1ccc(P(=O)(O)O)cc1)C2 (stereo partly drawn) [Example 174, (3R)-2-hydroxy-3-(2-(2-oxo-1,2-dihydropyridine-3-carboxamido)-2-(4-phosphonophenyl)acetamido)-3,4-dihydro-2H-benzo[e][1,2]oxaborinine-8-carboxylic acid] | > 128 | 16 to 32 (≈ 29.6 to 59.1 µM) | 50 to 250 | 16 to 32 (≈ 29.6 to 59.1 µM) | 4 to 8 (≈ 7.39 to 14.8 µM) | 2 to 4 (≈ 3.7 to 7.39 µM) | 8 to 16 (≈ 14.8 to 29.6 µM) | > 128 | > 128 | 1 to 2 (≈ 1.85 to 3.7 µM) | 32 to 64 (≈ 59.1 to 118 µM) | > 128 | 1 to 2 (≈ 1.85 to 3.7 µM) | 4 to 8 (≈ 7.39 to 14.8 µM)
CCN1CCN(C(=O)N[C@H](C(=O)N[C@H]2Cc3ccc(F)c(C(=O)O)c3OB2O)c2ccc(P(=O)(O)O)cc2)C(=O)C1=O (single isomer, unassigned) [Example 9] | > 128 | 1 to 2 (≈ 1.65 to 3.3 µM) | 50 to 250 | 4 to 8 (≈ 6.6 to 13.2 µM) | 1 to 2 (≈ 1.65 to 3.3 µM) | 8 to 16 (≈ 13.2 to 26.4 µM) | 2 to 4 (≈ 3.3 to 6.6 µM) | > 128 | > 128 | < 1 | 32 to 64 (≈ 52.8 to 106 µM) | > 128 | < 1 | 1 to 2 (≈ 1.65 to 3.3 µM)
CS(=O)(=O)N1CCN(C(=O)NC(C(=O)N[C@H]2Cc3cccc(C(=O)O)c3OB2O)c2ccc(P(=O)(O)O)c(F)c2O)C1=O (stereo partly drawn) [Example 48, (3R)-3-(2-(3-fluoro-2-hydroxy-4-phosphonophenyl)-2-(3-(methylsulfonyl)-2-oxoimidazolidine-1-carboxamido)acetamido)-2-hydroxy-3,4-dihydro-2H-benzo[e][1,2]oxaborinine-8-carboxylic acid] | > 128 | 16 to 32 (≈ 24.8 to 49.7 µM) | 10 to 50 | 4 to 8 (≈ 6.21 to 12.4 µM) | 1 to 2 (≈ 1.55 to 3.1 µM) | 8 to 16 (≈ 12.4 to 24.8 µM) | < 1 | > 128 | > 128 | < 1 | 8 to 16 (≈ 12.4 to 24.8 µM) | > 128 | < 1 | < 1
Nc1ncc(C(=O)N[C@@H](C(=O)N[C@H]2Cc3cccc(C(=O)O)c3OB2O)c2ccc(P(=O)(O)O)cc2)s1 (racemic) [Example 50, (R)-3-((S)-2-(2-aminothiazole-5-carboxamido)-2-(4-phosphonophenyl)acetamido)-2-hydroxy-3,4-dihydro-2H-benzo[e][1,2]oxaborinine-8-carboxylic acid and (R)-3-((R)-2-(2-aminothiazole-5-carboxamido)-2-(4-phosphonophenyl)acetamido)-2-hydroxy-3,4-dihydro-2H-benzo[e][1,2]oxaborinine-8-carboxylic acid] | > 128 | 16 to 32 (≈ 29.3 to 58.6 µM) | 50 to 250 | 16 to 32 (≈ 29.3 to 58.6 µM) | 4 to 8 (≈ 7.32 to 14.6 µM) | 2 to 4 (≈ 3.66 to 7.32 µM) | 8 to 16 (≈ 14.6 to 29.3 µM) | > 128 | > 128 | 1 to 2 (≈ 1.83 to 3.66 µM) | 32 to 64 (≈ 58.6 to 117 µM) | > 128 | 1 to 2 (≈ 1.83 to 3.66 µM) | 4 to 8 (≈ 7.32 to 14.6 µM)
CS(=O)(=O)N1CCN(C(=O)N[C@@H](C(=O)N[C@H]2Cc3cccc(C(=O)O)c3OB2O)c2ccc(P(=O)(O)O)c(F)c2)C1=O (single isomer, unassigned) [Example 15] | 8 to 16 (≈ 12.7 to 25.5 µM) | < 1 | < 10 | < 1 | < 1 | 2 to 4 (≈ 3.18 to 6.37 µM) | < 1 | > 128 | 32 to 64 (≈ 50.9 to 102 µM) | < 1 | 2 to 4 (≈ 3.18 to 6.37 µM) | > 128 | < 1 | < 1
CS(=O)(=O)N1CCC[C@H]1C(=O)N[C@H](C(=O)N[C@H]1Cc2cccc(C(=O)O)c2OB1O)c1ccc(P(=O)(O)O)cc1 [Example 43, (R)-2-hydroxy-3-((S)-2-((S)-1-(methylsulfonyl)pyrrolidine-2-carboxamido)-2-(4-phosphonophenyl)acetamido)-3,4-dihydro-2H-benzo[e][1,2]oxaborinine-8-carboxylic acid] | > 128 | 16 to 32 (≈ 26.9 to 53.8 µM) | 50 to 250 | 16 to 32 (≈ 26.9 to 53.8 µM) | 4 to 8 (≈ 6.72 to 13.4 µM) | 8 to 16 (≈ 13.4 to 26.9 µM) | 8 to 16 (≈ 13.4 to 26.9 µM) | > 128 | > 128 | 4 to 8 (≈ 6.72 to 13.4 µM) | 32 to 64 (≈ 53.8 to 108 µM) | > 128 | 1 to 2 (≈ 1.68 to 3.36 µM) | 4 to 8 (≈ 6.72 to 13.4 µM)
O=C(O)c1cccc2c1OB(O)[C@@H](NC(=O)[C@H](NC(=O)N1CCCCC1=O)c1ccc(P(=O)(O)O)cc1)C2 [Example 37, (R)-2-hydroxy-3-((R)-2-(2-oxopiperidine-1-carboxamido)-2-(4-phosphonophenyl)acetamido)-3,4-dihydro-2H-benzo[e][1,2]oxaborinine-8-carboxylic acid] | 32 to 64 (≈ 58.7 to 117 µM) | 16 to 32 (≈ 29.3 to 58.7 µM) | < 10 | 16 to 32 (≈ 29.3 to 58.7 µM) | 1 to 2 (≈ 1.83 to 3.67 µM) | < 1 | < 1 | > 128 | > 128 | < 1 | 8 to 16 (≈ 14.7 to 29.3 µM) | > 128 | < 1 | < 1
